Experimental data taken from patent US20030190671A1, “Use of metabolic phenotyping in individualized treatment with amonafide” (McGill University, priority 2001, published 2003).
Marks after values point to notes of the source that are not given here.

Legend:
Format in all cases: binding, rabbit
1,7-DMX-Ab = assay: Competitive antigen ELISA, antibody specificity of 1,7-DMX-Ab; conditions: hypothesized ideal antibody specificity; 0 = no inhibition or no higher than 40% at 5×10^−3 M
Procedure: (§1) Competitive Antigen ELISA
(§2) BSA, antibodies, Tween™ 20 and horse radish peroxidase are added to buffers and water just prior to use. Urine samples are usually collected four hours after drinking a cup of coffee (instant or brewed with approximately 100 mg of caffeine per cup) and stored at −20° C. as 1-mL aliquots in 1.5-mL microtubes. For the ELISA, the urine samples are diluted with isotonic sodium phosphate buffer, pH 7.5 (310 mosM) to give concentrations of caffeine, 1.7-DMX and 1,7-DMU no higher than 3×10^−6 M in the microtiter plate wells. Wells of the ELISA plate are washed with a Nunc-Immuno wash 12 washer. Sixteen milliliters of a solution of 6.6 μg ml^−1 of isolated IgG antibodies is prepared in a 100 mM sodium carbonate buffer, pH 9.6, and 150 μL of this solution is pipetted in each well of a microtiter plate using a eight channel pipet (Brinkmann Transferpette™-8 50-200 μL) and 200 μL Flex tips from Brinkmann). After coating the wells with antibodies at 4° C. for 20 hours, the wells are washed 3 times with the isotonic sodium phosphate buffer containing 0.05% Tween™ 20 (IPBT) and properly drained by inverting the plate and absorbing the liquid on to a piece of paper towel. Thirty milliliters of a solution of a IPBT solution containing 1% BSA is prepared and 150 μL of this solution is pipetted in each well using a eight channel pipet (Brinkmann Transferpet-te™-8 50-200 μL) and 200 μL yellow tips (Sarstedt yellow tips for P200 Gilson Pipetman). After 3 hours at room temperature, the wells are washed 3 times with IPBT solution and drained. Samples of 400 μL for determination of caffeine, 1,7-DMX and 1,7-DMU are prepared in 1.5-mL microtubes using Sarstedt yellow tips and a P200 Gilson Pipetman. Then, 200 μL of each sample are pipetted in duplicate in a Falcon 96-well microtest tissue culture plate according to the pattern shown in FIG. 23, using Sarstedt yellow tips and a P200 Gilson Pipetman. Using an eight channel pipet (Brinkmann Transferpette™-8 50-200 μL) and changing the tips of the eight channel pipet (200 μL Flex tips from Brinkmann) at each row, 150 μL of samples are transferred in the corresponding wells of a 96-well ELISA microtiter plate coated with antibodies. After the addition of the samples, the microtiter plates are covered and left standing at room temperature for 2 h. While the plate is left standing the substrate buffer without the hydrogen peroxide and o-phenylenediamine hydrochloride is prepared (25 mM citric acid and 50 mM sodium phosphate dibasic buffer, pH 5.0). The microtiter plate is washed 3 times with the IPBT solution and 3 times with a 0.05% Tween 20 solution and drained. Then, 50 […] of hydrogen peroxide and 40 mg of o-phenylenediamine are added to the substrate buffer. One hundred fifty microliters (150 μL) of the substrate buffer solution is then added to each well using a eight channel pipet (Brinkmann Transferpette™-8 50-200 μL) and 200 μL Flex tips (Brinkmann). The microtiter plate is covered and shaken for 25-30 min at room temperature and the enzymatic reaction is stopped by adding 50 μL/well of a 2.5 N HCl solution using an eight channel pipet (Brinkmann Transferpette™-8 50-200 μL) and 200 μL Flex tips (Brinkmann).

1,7-DMU-Ab = assay: Competitive antigen ELISA, antibody specificity of 1,7-DMU-Ab; conditions: hypothesized ideal antibody specificity; 0 = no inhibition or no higher than 40% at 5×10^−3 M
Procedure: as §1, §2

Caffeine-Ab = assay: Competitive antigen ELISA, antibody specificity of caffeine-Ab; conditions: hypothesized ideal antibody specificity; 0 = no inhibition or no higher than 40% at 5×10^−3 M
Procedure: as §1, §2

AAMU-Ab = assay: Competitive antigen ELISA, cross-reactivity of AAMU-Ab; conditions: for % Cross-Reaction AAMU-Ab: competitive antigen ELISA, 0 = absence of inhibition or inhibition no higher than 40% at the highest concentration tested (5×10^−3 M)
Procedure: as §1
(§3) Buffers and water without additives are filtered through millipore filters and kept for 1 week. BSA, antibodies, Tween™ 20 and horse radish peroxidase conjugates are added to these buffers and water just prior to use. Urine samples are usually collected 4 hours after drinking a cup of coffee (instant or brewed with approximately 100 mg of caffeine per cup) and stored at −80° C. The urine samples are diluted 10 times with sodium phosphate buffer (620 mosm, pH 7.50) and are subsequently diluted with water to give concentrations of AAMU and 1X no higher than 3×10^−6 M in the ELISA. All the pipettings are done with an eight-channel pipette, except those of the antibody and sample solutions. Starting with the last well, 100 μL of a carbonate buffer (100 mM, pH 9.6) containing 2.5 μg mL-1 antibodies are added to each well. After 90 min. at room temperature, the wells are washed three times with 100 mL of TPB: isotonic sodium phosphate buffer (310 mosm, pH 7.50) containing 0.05% Tween™ 20.
(§4) After the initial wash, unoccupied sites are blocked by incubation for 90 min. at room temperature with 100 μL TBP containing 3% BSA. The wells are washed four times with 100 […] TPB. […] The microplate is gently shaken with an orbital shaker at room temperature for 3-4 hours. The wells are washed three times with 100 μL TPB containing 1% BSA and three times with water containing 0.05% Tween™ 20. To the washed plate is added 150 μL of a substrate buffer composed of citric acid (25 mM) and sodium phosphate dibasic buffer (50 mM, pH 5.0) containing 0.06% hydrogen peroxide and 0.04% o-phenylenediamine hydrochloride.
as §3, with “were” for “are”, “They were” for “The urine samples are”, “mL^−1” for “mL-1”, “was pipetted.” for “are added to each well.”, “μL” for “mL”
(§5) After the initial wash, unoccupied sites were blocked by incubation for 90 min. at room temperature with 100 μL TBP containing 3% BSA. The wells were washed four times with 100 μL TPB. […] The microplate was gently shaken with an orbital shaker at room temperature for 3-4 hours. The wells were washed three times with 100 μL with TPB containing 1% BSA and three times with water containing 0.05% Tween™ 20. To the washed plate was added 150 μL of a substrate buffer composed of citric acid (25 mM) and sodium phosphate dibasic buffer (50 mM, pH 5.0) containing 0.06% hydrogen peroxide and 0.04% o-phenylenediamine hydrochloride. After 20 min. at room temperature with shaking, the reaction was stopped with 50 μL of 2.5 N HCl.
(§6) The cross reactivities of AAMU-Ab and 1X-Ab were tested using a wide variety of caffeine metabolites and structural analogs (Table 2 below).

1X-Ab = assay: Competitive antigen ELISA, cross-reactivity of 1X-Ab; conditions: for % Cross-Reaction 1X-Ab: competitive antigen ELISA, 0 = absence of inhibition or inhibition no higher than 40% at the highest concentration tested (5×10^−3 M)
Procedure: as §1, §3, §4
as §3, with “were” for “are”, “They were” for “The urine samples are”, “mL^−1” for “mL-1”, “was pipetted.” for “are added to each well.”, “μL” for “mL”
as §5, §6

SMILES	% Cross-reaction 1,7-DMX-Ab (1,7-DMX-Ab)	% Cross-reaction 1,7-DMU-Ab (1,7-DMU-Ab) [%]	% Cross-reaction Caffeine-Ab (Caffeine-Ab) [%]	% Cross-Reaction AAMU-Ab (AAMU-Ab)	% Cross-Reaction 1X-Ab (1X-Ab) [%]	IC50 (1X-Ab; read-out: concentration required for 50% inhibition in the competitive antigen ELISA, 1X-Ab) [µM]	IC50 (AAMU-Ab; read-out: concentration required for 50% inhibition in the competitive antigen ELISA, AAMU-Ab) [µM]
Cn1cnc2[nH]c(=O)[nH]c(=O)c21 [7-Methyl Xanthine]	0%	0	0	0%	0	–	–
Cn1c(=O)c2[nH]cnc2n(C)c1=O [1,3-Dimethyl Xanthine (Theophylline), 1,3-Dimethyl Xanthine]	0%	0	0	0%	0.2	–	–
CC(=O)Nc1c(N)n(C)c(=O)n(C)c1=O [5-Acetamino-6-amino-1,3-dimethyluracil]	0%	0	0	0%	0	–	–
Cn1c(=O)c2c(ncn2C)n(C)c1=O [1,3,7-Trimethyl Xanthine (Caffeine), 1,3,7-trimethylxanthine]	0^a %	0	100	0%	0	–	–
Cn1c(=O)[nH]c2ncn(C)c2c1=O [1,7-Dimethyl Xanthine (Paraxanthine), 1,7-dimethylxanthine]	100%	0	0	0%	0.5	–	–
Cn1c(=O)[nH]c(=O)c2[nH]cnc21 [3-Methyl Xanthine]	0%	0	0	0%	0	–	–
Cc1nc2[nH]c(=O)[nH]c(=O)c2[nH]1 [8-Methyl Xanthine]	0%	0	0	0%	0	–	–
O=c1cc[nH]c(=O)[nH]1 [Uracil]	0%	0	0	0%	0	–	–
Cn1cnc2c1c(=O)[nH]c(=O)n2C [3,7-Dimethyl Xanthine (Theobromine), 3,7-Dimethyl Xanthine]	0%	0	0	0%	0	–	–
O=c1[nH]c(=O)c2[nH]cnc2[nH]1 [Xanthine]	0%	0	0	0^a %	0	–	–
Nc1nc2nc[nH]c2c(=O)[nH]1 [Guanine]	0%	0	0	0%	0	–	–
Cn1c(=O)[nH]c2[nH]c(=O)[nH]c2c1=O [1-Methyluric acid, 1-methyluric acid]	0%	0	0	0%	11	–	–
Cn1c(=O)c2c([nH]c(=O)n2C)n(C)c1=O [1,3,7-Trimethyluric acid]	0%	0	0	–	–	–	–
O=c1[nH]c(=O)c2[nH]c(=O)[nH]c2[nH]1 [Uric acid]	0%	0	0	0%	0	–	–
Cn1c(=O)[nH]c2nc[nH]c2c1=O [1-Methyl Xanthine (1X), 1-methylxanthine]	0%	0	0	0%	100	10	–
Cn1c(=O)c2[nH]c(=O)[nH]c2n(C)c1=O [1,3-Dimethyluric acid]	0%	0	0	–	–	–	–
CC(=O)Nc1c(N)n(C)c(=O)[nH]c1=O [5-acetamino-6-amino-1-methyluracil]	0%	0	0	100%	0	–	1.5
Cn1c(=O)[nH]c2[nH]c(=O)n(C)c2c1=O [1,7-Dimethyluric acid, 1,7-dimethyluric acid]	0%	100	0	0%	0	–	–
Cn1c(=O)[nH]c(=O)c2[nH]c(=O)[nH]c21 [3-Methyluric acid]	0%	0	0	–	–	–	–
Cn1c(=O)[nH]c2[nH]c(=O)[nH]c(=O)c21 [7-Methyluric acid]	0%	0	0	–	–	–	–
Cn1c(=O)[nH]c(=O)c2c1[nH]c(=O)n2C [3,7-Dimethyluric acid]	0%	0	0	–	–	–	–
